Measured values taken from PubChem BioAssay AID2423 (Broad Institute, 2010).
Results filed as inconclusive are left out. Active and inactive are the calls of the source. How the calls were made is not given here.

The molecules below were run on C. albicans CaCi-8 + fluconazole, Alamar Blue growth, 48 h (assay: resistant C. albicans growth inhibition with fluconazole, dose response, CaCi-8 strain, Alamar Blue fluorescence (AID 2423)).

| SMILES | EC50 |
| --- | --- |
| COc1cccc(/C=N/Nc2cc(C)nc(-c3ccccc3O)n2)c1O | < 0.12 µM |
| CC[C@@H]1C=CC=CC[C@H](C)[C@@H](O)[C@@H](C)C(=O)[C@H](C)[C@@H](O)[C@H](C)C(=O)[C@H](C)[C@@H](O)[C@H](C)C=CC(=O)O[C@H]2[C@@H](C)[C@@H](CC1)O[C@@]1(CC[C@@H](C)[C@@H](C[C@H](C)O)O1)[C@@H]2C | 0.654 µM |
| O=C(COc1ccccc1)Nc1nnc(-c2ccc3c(c2)CCCC3)o1 | 0.727 µM |
| COC(=O)C1=NN(C(=O)c2ccc(Cl)cc2)C(O)(c2ccccc2)C1 (stereo not drawn) | > 16 µM (inactive) |
| N=C1/C(=C/c2cccn2-c2ccc([N+](=O)[O-])cc2)C(=O)N=C2SC=CN12 | > 16 µM (inactive) |
| Oc1c(Br)cc(Br)cc1/C=N/Nc1ccc(Cl)nn1 | 0.237 µM |
| NC(=O)c1c(NC(=O)c2ccco2)sc2c1CCC2 | 1.06 µM |
| CCOC(=O)C1CCCN(c2cc(C)nc3cc(-c4ccc(F)cc4)nn23)C1 (stereo not drawn) | > 16 µM (inactive) |
| Cc1nc2ccc(NC(=O)COc3ccccc3)cc2s1 | 5.37 µM |
| COc1ccc(-c2nnc(Nc3nc4c(OC)cccc4s3)o2)c(OC)c1 | 2.71 µM |
| CCOc1ccccc1C(=O)Nc1ccc2nc3n(c(=O)c2c1)CCCCC3 | 2.51 µM |
| O=C(N/N=C(\c1ccccc1)c1ccccn1)c1cccc([N+](=O)[O-])c1 | 5.31 µM |
| Cc1ccnc(NC(c2cccnc2)c2ccc3cccnc3c2O)c1 (stereo not drawn) | 13.1 µM |
| Cc1ccc(/C=N/NC(=O)C2=NNC(c3ccccc3)(c3ccccc3)C2)c(O)c1 | > 16 µM (inactive) |
| O=C(CCc1ccccc1)NNC(=S)NC(=O)c1ccc(Cl)cc1 | 1.99 µM |
| CCCc1ccc(OCC(=O)Nc2cc(S(=O)(=O)CC)ccc2O)cc1 | 0.439 µM |
| CCCCCCC[n+]1ccc(-c2cc[n+](CCCCCCC)cc2)cc1 | < 0.12 µM |
| CCCCOc1cccc(C(=O)NNC(=S)NC2CCCCC2)c1 | 8.74 µM |
| O=c1[nH]c(SCc2ccccc2F)nc2ccccc12 | 2.12 µM |
| CCn1c(COc2ccc(=O)n(-c3ccccc3)n2)nnc1SCc1cccc(OC)c1 | > 16 µM (inactive) |
| COc1cccc(/C=N/Nc2nccnc2Cl)c1O | 1.8 µM |
| CCOC(=O)N1CCN(Cc2cc(Cl)c3cccnc3c2O)CC1 | 1.91 µM |
| COc1cccc(-c2nnc(NC(=O)c3ccc4ncsc4c3)o2)c1 | 1.03 µM |
| c1ccc(CSc2nnc(-c3cccs3)n2Cc2ccco2)cc1 | 4.72 µM |
| COc1ccc(C[C@H]2NC[C@H](O)[C@H]2OC(C)=O)cc1 | 1.48 µM |
| Cc1ccc(-n2c(O)c(C=Nc3ccccc3-c3n[nH]c(=S)[nH]c3=O)c3ccccc3c2=O)cc1C | 0.496 µM |
| C=CC[C@@H]1C=C(C)C[C@H](C)C[C@H](OC)[C@H]2O[C@@](O)(C(=O)C(=O)N3CCCC[C@H]3C(=O)O[C@H](/C(C)=C/[C@@H]3CC[C@@H](O)[C@H](OC)C3)[C@H](C)[C@@H](O)CC1=O)[C@H](C)C[C@@H]2OC | < 0.12 µM |

| SMILES | EC50 |
| --- | --- |
| Oc1ccc(Cl)cc1C1=NNC(c2cc(Br)cc3c2OCOC3)C1 (stereo not drawn) | > 16 µM (inactive) |
| COc1ccccc1NC(=O)CN1CCN(c2ccccc2OC)CC1 | > 16 µM (inactive) |
| O=C(Nc1nnc(COc2ccc(F)cc2)s1)c1ccco1 | 7.77 µM |
| Cc1ccc(C(C)C)c(OCc2ccc(C(=O)N/N=C/c3cccc(O)c3O)cc2)c1 | 0.788 µM |
| COc1ccc2c(c1)/C(=C/c1cnc[nH]1)C(=O)N2 | 1.25 µM |
| Brc1cccc(CSc2nnc(-c3ccncc3)o2)c1 | > 15 µM (inactive) |
| NC[C@@H]1O[C@H](C23CC4CC(CC(C4)C2)C3)Cc2c1ccc(O)c2O | 3.36 µM |
| S=C(Nc1ccc(Cl)cc1)c1nc2ccccc2[nH]1 | 1.64 µM |
| Cc1cc(C(C#N)c2ccccc2F)n2ncnc2n1 (stereo not drawn) | 0.895 µM |
| CC1=C(C(N)=O)C(c2ccc(C)o2)C(C(N)=O)=C(C)N1 | > 16 µM (inactive) |
| Oc1cccc2ccc(Nc3ccccn3)nc12 | 2.35 µM |
| COc1ccc(C(=O)NCCN2CCOCC2)c(OC)c1OC | > 15 µM (inactive) |
| NC(=O)c1c(NC(=O)c2ccccc2F)sc2c1CCCC2 | 2.01 µM |
| CCCn1c(=N)n(CC(=O)c2ccc([N+](=O)[O-])cc2)c2ccccc21 | > 16 µM (inactive) |
| C/C(=N\NC(=O)c1cc(-c2cccnc2)nc2ccccc12)c1ccc(O)cc1O | 1.45 µM |
| CCCn1c(Nc2nc3ccccc3n2C)nc2ccccc21 | 1.17 µM |
| CCc1ccc2c(c1)/C(=C/C(=O)c1cccs1)C(=O)N2 | 2.38 µM |
| Cc1ccc(S(=O)(=O)CCC(=O)Nc2nc(-c3ccncc3)cs2)cc1 | 2.14 µM |
| CNC(=O)COC(=O)c1c2c(nc3ccccc13)CCC2 | > 16 µM (inactive) |
| Oc1ccccc1N=Nc1ccccc1O | 0.973 µM |
| N#C/C(=C\c1ccc(O)c(O)c1)C(=O)Nc1cccc2ncccc12 | > 15 µM (inactive) |
| O=C(Oc1c(CN2CCOCC2)cc(Cl)c2cccnc12)c1ccccc1Br | 4.12 µM |
| C[C@H]([C@@H](N)C(=O)N[C@@H](C(=O)O)[C@@H]1O[C@H](n2ccc(=O)[nH]c2=O)[C@@H](O)[C@H]1O)[C@@H](O)c1ccc(O)cn1 | 3.16 µM |
| COc1cc(/C=C(\C#N)c2nc3ccccc3s2)cc([N+](=O)[O-])c1O | > 15 µM (inactive) |
| COc1cc(OC)cc(-c2nnc(Nc3nc4c(F)cccc4s3)o2)c1 | > 15 µM (inactive) |
| Cc1ccc(C(=O)Nc2nc3ccccc3c(=O)s2)cc1 | 0.458 µM |
